US5908841A, “5,11-dihydro-6H-dipyrido[3,2-b:2',3'-e]azepine-6-ones and their use in the prevention of treatment of HIV infection” (priority 1998, dated 1999)

Biological target: T1, HIV-1 reverse transcriptase, wild type (WT) (Human immunodeficiency virus type 1 group M subtype B, UniProt P03367)
T1 construct: Reverse transcriptase enzyme from the LAV strain of Human Immunodeficiency Virus (HIV-1); made in house; host or cells: Escherichia coli JM109 (clone pBRTprtl+ in vector pIBI21)
Experiment: Reverse Transcriptase Assay, wild type (WT) enzyme (RNA-dependent DNA polymerase activity; poly r(C)/oligo d(G), 3H-dGTP)
Type: biochemical, HIV-1 (LAV strain)
Details: wild type (WT) RT
From the text: Utilizing the Reverse Transcriptase (RT) Assay described below, compounds can be tested for their ability to inhibit the RNA-dependent DNA polymerase activity of HIV-1 RT. Certain specific compounds described in the Examples which appear below, were so tested.
Among the enzymes for which Human Immunodeficiency Virus (HIV-1) encodes is a reverse transcriptase (1), so-named because it transcribes a DNA copy from an RNA template. This activity can be quantitatively measured in a cell-free enzyme assay, which has been previously described (2), and is based upon the observation that reverse transcriptase is able to use a synthetic template [poly r(C) primed with oligo d(G)] to transcribe a radio-labelled, acid-precipitable DNA strand utilizing ^3 H-dGTP as a substrate. The assay described below utilizes the wild type (WT) enzyme, which is the predominant form of the enzyme observed in patients infected with HIV-1. Utilization of mutant RT enzymes (Y181C and Y181L, prepared by site-directed mutagenesis in which the tyrosine residue at codon 181 has been replaced by a cysteine or a leucine residue, respectively) and analogous assay conditions allows compounds to be evaluated for their effectiveness at inhibiting these mutant enzymes.
a) Preparation of the wild type enzyme Reverse transcriptase enzyme from the LAV strain of Human Immunodeficiency Virus (HIV-1) (1) was isolated from the bacterial strain JM109 (3) expressing the DNA clone pBRTprtl+ (2) which is under the control of the lac promotor in the expression vector pIBI21 (4). An overnight culture grown in 2XYT medium (37° C., 225 rpm) (5) supplemented with 100 μg/mL ampicillin for positive selection is inoculated at a 1:40 dilution into M9 medium supplemented with 10 μg/mL thiamine, 0.5% casamino acids, and 50 μg/mL ampicillin (5). The culture is incubated (37° C., 225 rpm) until it reaches an OD540 of 0.3-0.4. At that time the repressor inhibitor IPTG (isopropyl β-D-thiogalactopyranoside) is added to 0.5 mM, and the mixture is incubated for 2 additional hours. Bacteria are pelleted, resuspended in a 50 mM Tris, 0.6 mM EDTA, 0.375M NaCl buffer and digested by the addition of lysozyme (1 mg/mL) for 30 minutes on ice. The cells are lysed by the addition of 0.2% NP-40 and brought to 1M NaCl.
After removal of the insoluble debris by centrifugation, the protein is precipitated by the addition of 3 volumes of saturated aqueous ammonium sulfate. The enzyme is pelleted, resuspended in RT buffer (50 mM Tris pH 7.5, 1 mM EDTA, 5 mM DTT, 0.1% NP-40, 0.1M NaCl, and 50% glycerol), and stored at -70° C. for further use.
b) Composition of 2× concentrated stock reaction mixture
[poly r(C)/oligo d(G)] (5:1)
The 2× concentrated stock reaction mixture is aliquoted and stored at -20° C. The mixture is stable and thawed for use in each assay. This enzyme assay has been adapted to a 96 well microtiter plate system, and has been previously described (6). Tris buffer (50 mM, pH 7.4), vehicle (solvent diluted to match the compound dilution), or compounds in vehicle are dispensed into 96-well microtiter plates (10 μL/well; 3 wells/compound). The HIV-1 RT enzyme is thawed, diluted in 50 mM Tris pH 7.4 so that fifteen μL of diluted enzyme contain 0.001 Unit (one unit is that amount of enzyme to transform 1 micromole of substrate per minute at 25° C.), and fifteen μL are dispensed per well. Twenty μL of 0.12-0.5M EDTA are added to the first three wells of the microtiter plate. EDTA chelates the Mg^++ present and prevents reverse transcription. This group serves as background polymerization which is subtracted from all other groups. Twenty-five μl of the 2× reaction mixture are added to all wells and the assay is allowed to incubate at room temperature for 60 minutes. The assay is terminated by precipitating the DNA in each well with 50 μL of 10% trichloracetic acid (TCA) (10% w/v) in sodium pyrophosphate (1% w/v). […]

Row | Compound | inhibition at 1 µM [%]
1 | CCC1c2ncccc2N(C)C(=O)c2ccc[n+]([O-])c21 (stereo not shown) [Example 1, 5,11-Dihydro-11-ethyl-5-methyl-10-oxo-6H-dipyrido[3,2-b:2',3'-e]azepin-6-on] | 68
2 | CCC1c2ncccc2C(=O)N(C)c2cccnc21 (stereo not shown) [Example 2, 5,11-Dihydro-11-ethyl-5-methyldipyrido[3,2-b:2',3'-e]azepine-6-one] | 62
3 | CCCC1c2ncccc2C(=O)N(C)c2cccnc21 (stereo not shown) [Example 3, 5,11-Dihydro-11-propyl-5-methyldipyrido[3,2-b:2',3'-e]azepine-6-one] | 64
4 | CCC1(C)c2ncccc2C(=O)N(C)c2cccnc21 (stereo not shown) [Example 4, 5,11-Dihydro-11-ethyl-11-methyl-5-methyldipyrido[3,2-b:2',3'-e]azepine-6-one] | 68
5 | CCC1(CC)c2ncccc2C(=O)N(C)c2cccnc21 [Example 5, 5,11-Dihydro-11-diethyl-5-methyldipyrido[3,2-b:2',3'-e]azepine-6-one] | 62
6 | CN1C(=O)c2cccnc2C2(CCCC2)c2ncccc21 [Example 6, 5,11-Dihydro-11-spirocyclopentyl-5-methyldipyrido[3,2-b:2',3'-e]azepine-6-one] | 62
7 | CCC1c2nc(OC)ccc2N(C)C(=O)c2ccc[n+]([O-])c21 (stereo not shown) [Example 7, 5,11-Dihydro-11-ethyl-2-methoxy-5-methyl-10-oxodipyrido[3,2-b:2',3'-e]azepine-6-one] | 75
8 | CCC1c2ncccc2C(=O)N(C)c2ccc(OC)nc21 (stereo not shown) [Example 8, 5,11-Dihydro-11-ethyl-2-methoxy-5-methyl-dipyrido[3,2-b:2',3'-e]azepine-6-one] | 84
9 | CCC1(CC)c2ncccc2C(=O)N(C)c2ccc(OC)nc21 [Example 9, 5,11-Dihydro-11-diethyl-2-methoxy-5-methyl-dipyrido[3,2-b:2',3'-e]azepine-6-one] | 66
10 | COc1ccc2c(n1)C(SC)c1c(ccc[n+]1[O-])C(=O)N2C (stereo not shown) [Example 10, 5,11-Dihydro-11-methylthio-2-methoxy-5-methyl-10-oxodipyrido[3,2-b:2',3'-e]azepine-6-one] | 91
11 | COc1ccc2c(n1)C(SC)c1ncccc1C(=O)N2C (stereo not shown) [Example 11, 5,11-Dihydro-11-methylthio-2-methoxy-5-methyl-dipyrido[3,2-b:2',3'-e]azepine-6-one] | 80
12 | COc1ccc2c(n1)C(C)(SC)c1ncccc1C(=O)N2C (stereo not shown) [Example 12, 5,11-Dihydro-11-methyl-11-methylthio-2-methoxy-5-methyl-dipyrido[3,2-b:2',3'-e]azepine-6-one] | 41
13 | CCC1c2ncccc2C(=O)N(C)c2ccc(-c3cn[nH]c3)nc21 (stereo not shown) [Example 13, 5,11-Dihydro-11-ethyl-2-(4-pyrazolyl)-5-methyl-dipyrido[3,2-b:2',3'-e]azepine-6-one] | 80
